The subject of series [1] is Escherichia coli (MC4100). Briefly: Minimum inhibitory concentration (MIC), E. coli. The class given is cell-based. To be noted: MH media, 37° C., 72 hours, visual growth. The protocol: (§1) As used herein, the term “minimum inhibitory concentration (MIC)” refers to the lowest concentration of an antimicrobial agent that will inhibit the visible growth of a microorganism after overnight incubation. MIC values against bacteria, for example, the Gram-positive Staphylococcus aureus and Enterococcus faecalis and the Gram-negative Escherichia coli and Pseudomonas aeruginosa were determined by standard methods. See also P. A. Wayne, Methods for Dilution Antimicrobial Tests for Bacteria that Grow Aerobically; Approved Standard, Ninth Edition, 2012, CLSI Document M07-A9, Vol. 32 No. 2, which is incorporated by reference herein in its entirety.
(§2) For all biological assays, laboratory strains of methicillin-susceptible Staphylococcus aureus MSSA (SH1000), Enterococcus faecalis (OG1RF), Escherichia coli (MC4100), Pseudomonas aeruginosa (PAO1), community-acquired methicillin-resistant Staphylococcus aureus CA-MRSA (USA300-0114), and hospital-acquired methicillin-resistant Staphylococcus aureus HA-MRSA (ATCC 33591) were grown with shaking at 37° C. overnight from freezer stocks in 10 mL of the indicated media.
(§3) Compounds were serially diluted two-fold from stock solutions to yield twelve test concentrations. Overnight S. aureus, E. faecalis, E. coli, P. aeruginosa, USA300-0114 (CA-MRSA), and ATCC 33591 (HA-MRSA) cultures diluted to ca. 10^6 cfu/mL in MH media and 100 μL were inoculated into each well of a U-bottom 96-well plate (BD Biosciences, BD 351177) containing 100 μL of compound solution. Plates were incubated statically at 37° C. for 72 hours upon which time wells were evaluated visually for bacterial growth. The MIC was determined as the lowest concentration of compound resulting in no bacterial growth visible to the naked eye, based on the majority of three independent experiments. Aqueous DMSO controls were conducted as appropriate for each compound.

Series [2] concerns Pseudomonas aeruginosa (PAO1). Briefly: Minimum inhibitory concentration (MIC), P. aeruginosa. Format: cell-based. To be noted: MH media, 37° C., 72 hours, visual growth. As for the experimental part:
as §1, §2, §3

The subject of series [3] is red blood cells (mechanically defibrinated sheep blood). Put plainly: Red blood cell (RBC) lysis assay (Lysis20). To be noted: for Lysis20 (highest concentration at which <20% of RBCs are lysed): sheep RBCs in PBS, 37° C., 1 hour, absorbance 540 nm, Table 1. The class given is cell-based. An excerpt:
These assessments followed standard protocols (Minbiole et al., 2016, Tetrahedron, 72: 3559-3566, Forman et al., 2016, ChemMedChem, 11: 1401-1405, Forman et al., 2016, ChemMedChem, 11: 958-962, Mitchell et al., 2015, ChemBioChem, 16: 2299-2303, Jennings et al., 2015, ACS Inf. Dis, 1: 304-308, Paniak et al., 2014, Bioorg. Med. Chem. Lett, 24: 5824-5828, Ator et al., 2014, Bioorg. Med. Chem. Lett, 24: 3706-3709, Jennings et al., 2014, ChemBioChem, 15: 2211-2215, Black et al., 2014, Bioorg. Med. Chem. Lett, 24, 99-102, Grenier et al., 2012, Bioorg. Med. Chem. Lett, 22: 4055-4058).
RBC lysis assays were performed on mechanically defibrinated sheep blood (Hemostat Labs: DSB030). 1.5 mL of blood was placed into a microcentrifuge tube and centrifuged at 10,000 rpm for ten minutes. The supernatant was removed and the cells were resuspended with 1 mL of phosphate-buffered saline (PBS). The suspension was centrifuged as previously, the supernatant was removed, and cells were resuspended two more times. The final cell suspension was diluted twentyfold with PBS. The twentyfold suspension dilution was then aliquoted into microcentrifuge tubes containing compound serially diluted in PBS. TritonX (1% by volume) served as a positive control (100% lysis marker) and sterile PBS served as a negative control (0% lysis marker). Samples were then placed in an incubator at 37° C. and shaken at 200 rpm. After 1 hour, the samples were centrifuged at 10,000 rpm for ten minutes. The absorbance of the supernatant was measured with a UV spectrometer at a 540 nm wavelength.

The subject of series [4] is hospital-acquired methicillin-resistant Staphylococcus aureus HA-MRSA (ATCC 33591). Briefly: microbe, parasite or virus in culture. The note with it: Staphylococcus aureus, 72 h, read-out: MIC, HA-MRSA. Format: cell-based. The protocol: as §1, §2, §3
Series [5] has as its system community-acquired methicillin-resistant Staphylococcus aureus CA-MRSA (USA300-0114). Put plainly: Minimum inhibitory concentration (MIC), CA-MRSA. Format: cell-based. To be noted: MH media, 37° C., 72 hours, visual growth. The protocol:
as §1, §2, §3

Series [6] is described as follows: Stability of the prepared amphiphiles. To be noted: observation after preparation. The class given is physicochemical. The protocol:
(§4) For the tris-pyridine system, it was initially attempted to alkylate the commercially available O3Pyr, which led to no reaction under a number of SN2-type reaction conditions, presumably due to steric hindrance next to the nucleophilic pyridine nitrogen. The preparation of the “para” isomer via a precedented reductive amination shown in FIG. 4 (52%) was then carried out (Oh et al., 2007, Korean Chem. Soc, 28: 2193-2194, Abdel-Magid et al., 1996, J. Org. Chem, 61: 3849-3862). […] Attempts to prepare homologs led to variable yields and unacceptable purity. While not wishing to be bound by any particular theory it was hypothesized that this could have resulted from a fragmentation event driven by the central nitrogen, which might be circumvented by a change in the electronic distribution of the QAC. […] These amphiphiles were prepared in 71-97% yields, again after recrystallization or trituration. […]

Series [7] deals with methicillin-susceptible Staphylococcus aureus MSSA (SH1000). Put plainly: Minimum inhibitory concentration (MIC), S. aureus. Format: cell-based. To be noted: MH media, 37° C., 72 hours, visual growth. The protocol:
as §1, §2, §3

For series [8], the system named is Enterococcus faecalis (OG1RF). Briefly: Minimum inhibitory concentration (MIC), E. faecalis. Format: cell-based. To be noted: MH media, 37° C., 72 hours, visual growth. The protocol: as §1, §2, §3
In series [9] the test system is six bacteria (SA, EF, EC, PA, CA-MRSA, HA-MRSA). Briefly: Antimicrobial activity (MIC) over the panel of six bacteria. The class given is cell-based. As for the experimental part:
as §4
Compounds were serially diluted two-fold from stock solutions to yield twelve test concentrations. […] Plates were incubated statically at 37° C. for 72 hours upon which time wells were evaluated visually for bacterial growth. The MIC was determined as the lowest concentration of compound resulting in no bacterial growth visible to the naked eye, based on the majority of three independent experiments. […]

≈ marks a conversion by molar mass, not a printed value.

For the compound `CCCCCCCCCCCC[n+]1ccc(CN(Cc2cc[n+](CCCCCCCCCCCC)cc2)Cc2cc[n+](CCCCCCCCCCCC)cc2)cc1` [P3Pyr-12,12,12], the MIC in [1] turned out to be 2 µM; in [2], 8 µM; in series [4], 2 µM; in series [5], 1 µM; in series [7] it was 2 µM; in series [8], 2 µM. Moreover, the “Lysis20 (highest concentration at which <20% of RBCs are lysed)” value in series [3] is 8 μm. The stability result in series [6] is on record as “poor stability”.

Consider `CCCCCCCCCCC[n+]1ccc(CCCc2cc[n+](CCCCCCCCCCC)cc2)cc1` [2Pyr-11,11], for which the MIC in series [1] stood at 0.5 µM; in series [2], 2 µM; in [4], 0.5 µM; in series [5], 0.25 µM; in series [7], 0.5 µM; in [8] it was 0.25 µM. The “antimicrobial activity / bioactivity in words” value in [9] was “nanomolar inhibition against 5 of 6 bacteria tested”. Moreover, the “Lysis20 (highest concentration at which <20% of RBCs are lysed)” value in [3] is given as 8 μm.

Take `CCCCCCCCCCCCCC[n+]1ccc(CCCc2cc[n+](CCCCCCCCCCCCCC)cc2)cc1` [2Pyr-14,14]: the MIC in [1] was determined as 4 µM; in [2] it was 250 µM; in series [4], 2 µM; in series [5], 2 µM; in [7], 8 µM; in series [8], 1 µM. Besides, the “Lysis20 (highest concentration at which <20% of RBCs are lysed)” value in series [3] is 63 μm.

For `c1cncc(CN(Cc2cccnc2)Cc2cccnc2)c1` [Compound M3Pyr, reference compound], the MIC is over 250 µM in series [1]; over 250 µM in [2]; 250 µM (≈ 72.6 µg/mL) in series [4]; 250 µM (≈ 72.6 µg/mL) in [5]; 250 µM (≈ 72.6 µg/mL) in [7]; over 250 µM in series [8]. Also, the “Lysis20 (highest concentration at which <20% of RBCs are lysed)” value in [3] is on record as over 250 μm.

As to `CCCCCCCCCCCCCC[n+]1cccc(CN(Cc2ccc[n+](CCCCCCCCCCCCCC)c2)Cc2ccc[n+](CCCCCCCCCCCCCC)c2)c1` [M3Pyr-14,14,14], the MIC in series [1] was determined as 4 µM; in [2], 32 µM; in series [4], 1 µM; in [5] it was 1 µM; in [7], 2 µM; in series [8], 2 µM. In addition, the “Lysis20 (highest concentration at which <20% of RBCs are lysed)” value in [3] stood at 4 μm.

For `CCCCCCCCCCCC[n+]1ccc(CCCc2cc[n+](CCCCCCCCCCCC)cc2)cc1` [2Pyr-12,12], the MIC in series [1] came to 1 µM; in [2] it was 4 µM; in [4], 0.5 µM; in [5], 0.25 µM; in [7], 0.5 µM; in [8], 0.5 µM. Also, the “Lysis20 (highest concentration at which <20% of RBCs are lysed)” value in series [3] amounted to 4 μm. Besides, in series [3] (sheep RBCs, values restated in text), the “lysis20 (hemolysis activity)” value was 4 µM.

Consider `CCCCCCCCCC[n+]1ccc(CN(Cc2cc[n+](CCCCCCCCCC)cc2)Cc2cc[n+](CCCCCCCCCC)cc2)cc1` [P3Pyr-10,10,10], for which the MIC stood at 1 µM in [1]; 2 µM in series [2]; 0.5 µM in [4]; 0.5 µM in series [5]; 0.5 µM in [7]; 1 µM in series [8]. Also, the “Lysis20 (highest concentration at which <20% of RBCs are lysed)” value in series [3] is 4 μm. In addition, the stability result in series [6] is listed as “poor stability”.

Regarding `CCCCCCCC[n+]1cccc(CN(Cc2ccc[n+](CCCCCCCC)c2)Cc2ccc[n+](CCCCCCCC)c2)c1` [M3Pyr-8,8,8], the MIC in series [1] was determined as 8 µM; in series [2], 32 µM; in series [4] it was 2 µM; in series [5], 1 µM; in [7], 2 µM; in [8], 8 µM. Besides, the “Lysis20 (highest concentration at which <20% of RBCs are lysed)” value in series [3] was over 250 μm.

Regarding `CCCCCCCCCC[n+]1ccc(CCCc2cc[n+](CCCCCCCCCC)cc2)cc1` [2Pyr-10,10], the MIC in series [1] is 0.5 µM; in [2], 16 µM; in series [4], 1 µM; in series [5], 0.25 µM; in series [7], 0.5 µM; in series [8], 1 µM. Moreover, the “Lysis20 (highest concentration at which <20% of RBCs are lysed)” value in [3] worked out at 16 μm.

For the compound `c1cc(CCCc2ccncc2)ccn1` [Compound 2Pyr, 1,3-di-(4-pyridyl)propane, reference compound], the MIC in [1], in [2], in series [4], in [5], in series [7] and in [8] was over 250 µM in each case. In addition, the “Lysis20 (highest concentration at which <20% of RBCs are lysed)” value in series [3] is over 250 μm.

As for `c1cc(CN(Cc2ccncc2)Cc2ccncc2)ccn1` [Compound P3Pyr, reference compound], the MIC in series [1], in series [2], in [4], in series [5], in series [7] and in series [8] was over 250 µM in each case. In addition, in [3], the “Lysis20 (highest concentration at which <20% of RBCs are lysed)” value is recorded as 125 μm.

Turning to `CCCCCCCCCCCCCCCCCC[n+]1cccc(CN(Cc2ccc[n+](CCCCCCCCCCCCCCCCCC)c2)Cc2ccc[n+](CCCCCCCCCCCCCCCCCC)c2)c1` [M3Pyr-18,18,18], the MIC in [1] is 63 µM; in [2] it was over 250 µM; in series [4], 4 µM; in series [5] it was 4 µM; in [7], 8 µM; in series [8] it was 32 µM. Besides, the “Lysis20 (highest concentration at which <20% of RBCs are lysed)” value in series [3] is 8 μm.

The record behind these values is patent US12459898B2, “Polycationic amphiphiles as antimicrobial agents and methods using same” (Temple University-Of The Commonwealth System of Higher …, priority 2016, dated 2025).
